Entries after “also recorded” stand apart in the source; their conditions may differ.
How the values were obtained:
[1] = tested on: patient diagnosed with LMNA-related DCM; test: Treatment of patient diagnosed with LMNA-related dilated cardiomyopathy (case report); type: in vivo, human; settings: for patient's condition: carvedilol 25 mg twice daily with eplerenone 25 mg once daily, before colchicine
Source text: In August of 2013 patient […] was diagnosed with LMNA-related DCM, also known as “cardiac laminopathy,” an inherited degenerative cardiac disorder characterized by left ventricular dilation, arrhythmia, and cardiac enlargement. It is a subset of “non-ischemic cardiomyopathy.”
The patient worked as a college professor and the patient's condition worsened throughout the 2013-14 school year. The patient was heading toward long-term disability due to fatigue, shortness of breath and palpitations, all due to their progressive heart failure. In October, an implantable defibrillator was placed in the patient's chest, and the patient was hospitalized twice for cardiac arrhythmias (i.e., once for excessive premature ventricular contractions or TVCs′, and once for cardiac resynchronization for atrial fibrillation). Because conventional heart failure therapy appeared unsuccessful at ameliorating disease effects, the patient undertook a comprehensive review of literature on laminopathy to find a novel treatment.
In June 2014, the patient began experiencing PVC-burden cardiomyopathy, a secondary myopathy caused by a heavy premature ventricular contraction (PVC) load. Their PVCs were measured at 52,000 over a 48-hour holter-monitor. Given their deteriorating condition, now with NYHA class III heart failure, they sought care at Northwestern University's Bluhm Cardiovascular Institute in Chicago with Dr. Jane Wilcox.
Dr. Wilcox adjusted the patient's existing medication regimen to reflect best practice for treating dilated cardiomyopathy. The patient began taking 25 mg twice daily of carvedilol, as well as 25 mg once daily of eplerenone.
In January 2015, the patient underwent an unsuccessful procedure to ablate cardiac tissue causing their PVC burden. Their heart ejection fraction (EF), previously measured at 55%, was now measured at 45%. Later that month, the patient was hospitalized for Sotalol (antiarrhythmic drug) initiation. Sotalol was also unsuccessful in treating the patient's PVCs.
The patient had been very symptomatic with PVC's and could tell when his they were having PVC's.
Further, the patient was now considered to have NYHA class I heart failure symptoms and able to resume all previous activities, including running and biking, whereas previously the patient was NYHA class III (i.e., heart failure symptoms with mild activity).
As of July 2016, the patient stopped taking Sotalol because it seemed superfluous in respect to the patient's carvedilol regimen, and the patient has continued to be NYHA class I (i.e. asymptomatic).

[2] = cited from earlier work
[3] = tested on: familial Mediterranean fever (FMF); settings: long-term use; reference 3; cited from earlier work
LMNA cells = settings: laboratory studies, reference 4 (Larrieu et al.); cited from earlier work

COC(=O)[C@@H]1CC2=CC(=O)CC[C@]2(C)[C@@]23O[C@@H]2C[C@@]2(C)[C@@H](CC[C@@]24CCC(=O)O4)[C@H]13 [eplerenone]
reason for ceasing drug (potassium levels) ([1]; March 2016): elevated potassium levels
patient's condition [1]: continued to deteriorate

CC(C)NCC(O)c1ccc(NS(C)(=O)=O)cc1 (stereo not drawn) [Sotalol]
treatment of the patient's PVCs ([1]; January 2015, before colchicine): unsuccessful

COc1cc2c(c(OC)c1OC)-c1ccc(OC)c(=O)cc1[C@@H](NC(C)=O)CC2 [colchicine]
negative side effects ([1]; 1.8 mg colchicine twice daily (3.6 mg total dose), monitored for myelosuppression): no negative side effects; also recorded: has not experienced negative side effects
NYHA class of heart failure symptoms ([1]; August 2015, previously NYHA class III): NYHA class I
improvement in cardiac output, measured non-invasively using LVOT velocity time integral (VTI) ([1]; August 2015 echocardiogram, colchicine started early 2015): 20%
ventricular remodeling (left ventricular size and volume) ([1]; February 2016 echocardiogram): positive ventricular remodeling
cardiac output (LVOT) ([1]; February 2016 echocardiogram, LVOT initially was 15): 22
ejection fraction ([1]; February 2016 echocardiogram, improvement from 40-45%): 55%
NYHA class of heart failure symptoms ([1]; as of July 2016, after stopping eplerenone and Sotalol): NYHA class I
general condition / overall health of the patient ([1]; on colchicine, at higher doses than typically used for gout): dramatic recovery; also recorded: continued to improve
PVC volume ([1]; within 48 hours of colchicine administration, patient with LMNA-related DCM): diminished considerably
toxicity with P-gp or strong CYP3A4 inhibitors ([2]; patients with renal or hepatic impairment, colchicine taken in therapeutic doses): life-threatening and fatal colchicine toxicity
frequency of agranulocytosis, thrombocytopenia, aplastic anemia, leukopenia, granulocytopenia, pancytopenia (hematologic, rare) ([2]; reported adverse reactions): less than 0.1%
frequency of alopecia (dermatologic, rare) ([2]; reported adverse reactions): less than 0.1%
frequency of azoospermia, oligospermia (genitourinary, rare) ([2]; reported adverse reactions): less than 0.1%
frequency of myopathy, rhabdomyolysis, elevated CPK, myotonia, muscle weakness, muscle pain (musculoskeletal, rare) ([2]; reported adverse reactions): less than 0.1%
frequency of pharyngolaryngeal pain (respiratory, common) ([2]; reported adverse reactions): 3%
treatment of FMF (preventing attacks, reduction of symptoms, prevention and treatment of amyloidosis) [3]: very effective
nuclear shape defects characteristic of LMNA cells (LMNA cells): rescue nuclear shape defects

COc1ccccc1OCCNCC(O)COc1cccc2[nH]c3ccccc3c12 (stereo not drawn) [carvedilol]
patient's condition [1]: continued to deteriorate
